In one series the target is T1, HIV-1 protease (Human immunodeficiency virus type 1 group M subtype B, UniProt P04585).
T1 construct: 2.6 nM of HIV-1 protease
The series can be described thus: Assay for inhibitory effect on HIV protease (residual enzyme activity, HPLC of substrate cleavage). It is filed as biochemical. The following applies: pH 5.5; for Ki / kinact: HIV-1 protease 2.6 nM; for Ki: inhibition constant; for kinact: rate constant of covalent bond formation, read-out: kina (converted); for kinact/KI: second order rate constant, HIV-1 protease, read-out: kina /KI (converted). The procedure: The inhibitory effect on HIV protease of the compounds of the present invention was determined by the following method.
To a buffer solution comprising 50 mM sodium acetate, pH 5.5, 1 mM dithiothreitol(DTT), 1 mM ethylenediaminetetraacetate (EDTA), 0.75M ammonium sulfate, 0.2M sodium chloride and 0.1% NP40(NONIDET P-40; Sigma Chemical Co., U.S.A.), were added various concentrations of a compound selected from Compound Nos. 1 to 92 to prepare a preincubation solution. Inhibition reaction was started with the addition of 2.6 nM of HIV-1 protease to the preincubation solution. Each 10 μl of the reaction solution was taken at a given time interval and added to 80 μl of assay solution containing 100 μM of reaction substrate in the same buffer solution as above to assay for the residual enzyme activity. In this context, an oligopeptide(KM =20 μM) consisting of 11 amino acids, i.e., Ser-Ile-Ala-Glu-(p-NO2)-Phe-Leu-Val-Arg-Ala-Lys-His, was used as a reaction substrate, which oligopeptide was to be cleaved in two by the breakage of amide bond between (P--NO2)-Phe and Leu upon the attack of HIV protease. The reaction rate was determined by subjecting the substrate before the reaction and the product after the reaction to HPLC separation and then measuring the relative amount of the product, using the strong absorbance of (p--NO2)-Phe at 280 nm. The amount of reduction in enzyme activity according to the elapsed time were measured and the natural logarithmic values(ln) of the measured amounts were plotted against time to obtain a linear graph and kobs was calculated from the slope of the linear graph.
The inhibition constant was calculated according to the following equation: [formula] wherein: kobs is a rate constant indicating the rate of reduction in enzyme activity according to the elapsed time under the presence of a given concentration of inhibitor,
kina is a rate constant indicating the rate of chemical reaction forming covalent bond between an enzyme and an inhibitor in Michaelis-Menten complex,
KI is an inhibition constant indicating the dissociation rate of Michaelis-Menten complex into an enzyme and an inhibitor, and
[I] means the inhibitor concentration.
The above equation is applicable to an experiment carried out under the condition in which the concentration of inhibitor is far higher than that of enzyme(Steady State Kinetic). […] The inhibition constants KI and kina and second order rate constant kina /KI were obtained by inputting the value of [E]/([E]+[EI]+[EI']) into KINSIM/FITSIM program. FIG. 1 exemplifies a result of the experiment determining the binding ratio of enzymes and inhibitors, which result was obtained by reacting the enzyme and the inhibitor in various concentration ratios for a sufficient time period(at least for 30 minutes), and then plotting the relative activity of the remaining enzyme against [conc. of inhibitor]/[conc. of enzyme].

Series [1] can be described thus: Cytotoxicity in H9 or Sup T1 cells (trypan blue dye exclusion). As to conditions: human; concentration that causes death of cells by 50%; H9 or Sup T1 cells, 37° C; read-out: CT50 (the source's name). The series is classed as cell-based. As for the experimental part: To determine the cytotoxicity of the compounds of the present invention, 0.1 μM to 100 μM of the novel compounds were added to H9 cell or Sup T1 cell and the mixture was cultured on a rpmi-1640 medium at 37° C. The medium was refreshed every 3 days and the extent of cell proliferation was observed using Hemacytometer according to the trypan blue dye exclusion technique which is well known in the art. CT50 (i.e., concentration that causes death of cells by 50%) was determined. For reference, AZT(Burrows-Wellcome), A-75925 (Abbott, C2 symmetric compound) and Ro-31-8959(F. Hofmann-La Roche) were used as control compounds.

In a further series the test system is HIV-1. Nature of the series: Anti-viral activity: syncytium formation (Sup T1) or reverse transcriptase assay (H9). It is filed as cell-based. The following applies: Human immunodeficiency virus 1, SUP-T1. The procedure:
The anti-viral activity of the compounds of the present invention was determined by measuring the concentration of the compounds that inhibits the proliferation of HIV by 50%(IC50) through a survey for syncytium formation or reverse transcriptase assay.
1×10^5 cells of each of H9(ATCC HTB 176) and Sup T1 cell lines were added to the wells of a 24-well microtiter plate and various concentrations so the compounds of the present invention were added thereto. 200 TCID50 (200-fold of 50% tissue culture infection dose) of HIV-1 inoculum and rpmi-1640 medium(Sigma Chemical Co., U.S.A) were added successively to the wells and the plate was incubated at 37° C. In case of Sup T1, the number of syncytium formed was investigated after 3 to 9 days. IC50 of each compound was determined by measuring the concentration of inhibitor that can reduce the number of syncytium by 50% compared with those formed in the same condition without the inhibitor.
In case of H9, three-quarters(3/4) of the culture medium in volume was refreshed every 3 days; and 6 ml of the culture fluid was centrifuged at 1000 rpm for 10 minutes. To 5 ml of the resulting supernatant were added 2.5 ml of 30% polyethyleneglycol(PEG, M.W. 6000-8000) and 0.4M NaCl. The resulting solution was allowed to stand at 0° C. overnight to precipitate virus particles. The solution was centrifuged at 2000 rpm for 45 minutes, the supernatant was discarded therefrom and the precipitate was diluted with 20 μl of a reverse transcriptase suspension buffer(50 mM tris-HCl, pH 7.5, 1 mM dithiothreitol, 20% glycerol, 0.25M KCl and 0.25% Triton X-100). The resulting suspension was stored in an Effendorf tube at -70° C. until used. A procedure of freezing said virus suspension for 2 minutes in dry ice and thawing same at 37° C. for 2 minutes was repeated three times and the resulting suspension was centrifuged at 4° C. The resulting supernatant was used in carrying out the reverse transcriptase assay.
10 μl of the said viral suspension was added to a solution of: 10 μl of buffer solution(250 mM tris-HCl, pH 7.5, 37.5 mM MgCl2, 0.25% triton X-100), 1.2 μl of 200 mM dithiothreitol, 5 μl of 10 μM oligo(dT)-poly(A)(Boeringer Manheim, 12-18 oligomer), 1 μl(1 μCi) of ^3 H-TTP(Thymidinetri-phosphate) and 23.6 μl of water; and the resulting mixture was placed at 37° C. After 1 hour, the mixture was poured onto a WHATMAN DEB1 filter and the filter was washed three times with 5 ml of 2×SSC buffer solution(17.53 g of sodium chloride, 8.82 g of sodium citrate, pH 7.0, 1 liter of water) for about 10 minutes each time and twice with 95% ethanol for 10 seconds. The filter was put onto aluminium foil and dried with an infra-red lamp. The amount of radioactivity was counted using a liquid scintillation counter. IC50 of each compound was determined by measuring the concentration of inhibitor that can reduce the activity of reverse transcriptase by 50%.

SMILES strings stand for the structures.

As to `CC(C)[C@H](NC(=O)C[C@@H]1O[C@@H]1[C@H](Cc1ccccc1)NC(=O)[C@H](CC(N)=O)NC(=O)c1ccc2ccccc2n1)C(=O)NCc1ccccn1` [compound 19], on HIV-1 protease, the Ki amounted to 81 nM, the kinact was 0.00367 s⁻¹ and the kinact/KI was 45000 M⁻¹ s⁻¹. In addition, in series [1], the CC50 was over 100000 nM. The same compound yielded a half-maximal inhibitory concentration (IC50) in the series on HIV-1 of 5000 nM.
In the case of `CC[C@H](C)[C@H](NC(=O)C[C@@H]1O[C@@H]1[C@H](Cc1ccccc1)NC(=O)[C@H](CC(N)=O)NC(=O)c1ccc2ccccc2n1)C(=O)NC` [compound 25, N-{5-L-[[N-(2-quinolinecarbonyl)-L-asparaginyl]amino]-(4R,3S)-epoxy-6-phenylhexanoyl}-L-isoleucinyl-methylamide], on HIV-1 protease, the Ki came to 20 nM, the kinact is 0.003 s⁻¹ and the kinact/KI was 150000 M⁻¹ s⁻¹. In addition, the CC50 in series [1] is over 100000 nM. In the series with HIV-1, the IC50 is 500 nM.
With `CC[C@H](C)[C@H](NC(=O)C[C@@H]1O[C@@H]1[C@H](Cc1ccccc1)NC(=O)[C@H](CC(N)=O)NC(=O)c1ccc2ccccc2n1)C(=O)N(C)C` [compound 26], the Ki on HIV-1 protease is over 10000 nM. Moreover, in series [1], the CC50 was over 100000 nM. Also, the IC50 in the series with HIV-1 turned out to be 500 nM.
In the case of `CC[C@H](C)[C@H](NC(=O)C[C@@H]1O[C@@H]1[C@H](Cc1ccccc1)NC(=O)[C@H](CC(N)=O)NC(=O)c1ccc2ccccc2n1)C(N)=O` [compound 27, N-{5-L-[[N-(2-quinolinecarbonyl)-L-asparaginyl]amino]-(4R,3S)-epoxy-6-phenylhexanoyl}-L-isoleucinyl amide], on HIV-1 protease, the Ki was 3 nM, the kinact was 0.00333 s⁻¹ and the kinact/KI was 1.12e+06 M⁻¹ s⁻¹. In addition, the CC50 in series [1] is about 10000 nM. For the same compound, in the series with HIV-1, inhibition was half-maximal at 1000 nM (IC50).
`CC[C@H](C)[C@H](NC(=O)C[C@@H]1O[C@@H]1[C@H](Cc1ccccc1)NC(=O)[C@H](CC(N)=O)NC(=O)c1ccc2ccccc2n1)C(=O)NOC` [compound 28, N-{5-L-[[N-(2-quinolinecarbonyl)-L-asparaginyl]amino]-(4R,3S)-epoxy-6-phenylhexanoyl}-L-isoleucinyl-(N-methoxy)-amine]: on HIV-1 protease, the inhibition constant Ki stood at 15 nM, the kinact is 0.00333 s⁻¹ and the kinact/KI is 217000 M⁻¹ s⁻¹. The CC50 in series [1] was over 100000 nM. Half-maximal inhibition in the series with HIV-1 (IC50) required 600 nM.
On the same counts, the results for `CC(C)[C@H](NC(=O)C[C@@H]1O[C@@H]1[C@H](Cc1ccccc1)NC(=O)[C@H](CC(N)=O)NC(=O)c1ccc2ccccc2n1)C(N)=O` [compound 32] are 5 nM, 0.00367 s⁻¹, 733000 M⁻¹ s⁻¹, over 100000 nM and 500 nM.
For `CC[C@H](C)[C@H](NC(=O)C[C@@H]1O[C@@H]1[C@H](Cc1ccccc1)NC(=O)[C@@H](NC(=O)N(C)Cc1ccccn1)C(C)C)C(=O)OC` [compound 35, N-{N-L-[[N,N-(2-pyridylmethyl)(methyl)-amino]carbonylvalinyl]amino-(4R,3S)-epoxy-6-phenyl-hexanoyl}-L-isoleucine methyl ester], the inhibition constant (Ki) on HIV-1 protease is over 10000 nM. Besides, the CC50 in series [1] was over 100000 nM. Besides, the IC50 in the series with HIV-1 worked out at 1000 nM.
Consider `CC[C@H](C)[C@H](NC(=O)C[C@@H]1O[C@@H]1[C@H](CC1CCCCC1)NC(=O)[C@@H](NC(=O)N(C)Cc1ccccn1)C(C)C)C(=O)OC` [compound 39, N-{5-L-[[N,N-(2-pyridylmethyl)(methyl)-amino]carbonylvalinyl]amino-(4R, R3S)-epoxy-6-(cyclohexylmethyl)-hexanoyl}-L-isoleucine methyl ester], for which the Ki at HIV-1 protease was over 10000 nM. Moreover, in series [1], the CC50 was over 100000 nM. Also, the IC50 with HIV-1 is 1000 nM.
Turning to `CC[C@H](C)[C@H](NC(=O)C[C@@H]1O[C@@H]1[C@H](Cc1ccccc1)NC(=O)[C@H](CC(N)=O)NC(=O)c1ccc2ccccc2n1)C(=O)NO` [compound 40], at HIV-1 protease, the Ki came to 33 nM, the kinact was 0.00417 s⁻¹ and the kinact/KI is 1270 M⁻¹ s⁻¹. Also, the CC50 in series [1] was over 100000 nM. In the series with HIV-1, this compound had an IC50 of 700 nM.
On the same counts, the results for `CC(C)[C@H](Cc1ccccc1)NC(=O)C[C@@H]1O[C@@H]1[C@H](Cc1ccccc1)NC(=O)[C@H](CC(N)=O)NC(=O)c1ccc2ccccc2n1` [compound 42, [[(5S)-[N-(2-quinolinecarbonyl)-L-asparaginyl]amino]-(4R,3S)-epoxy-6-phenyl-1-hexanoyl]-[(2S)-[1-phenyl-3-methyl]butyl]amide] are 0.8 nM, 0.0433 s⁻¹, 5.5e+07 M⁻¹ s⁻¹, over 100000 nM and 20 nM.
Consider `CC(C)[C@@H](NC(=O)C[C@@H]1O[C@@H]1[C@H](Cc1ccccc1)NC(=O)[C@H](CC(N)=O)NC(=O)c1ccc2ccccc2n1)c1ccccc1` [compound 43], for which, at HIV-1 protease, the Ki came out at 3.2 nM, the kinact was 0.0283 s⁻¹ and the kinact/KI is 88300 M⁻¹ s⁻¹. The CC50 in series [1] is over 100000 nM. In addition, the IC50 in the series with HIV-1 was 50 nM.
With `CC(C)[C@H](CCc1ccccc1)NC(=O)C[C@@H]1O[C@@H]1[C@H](Cc1ccccc1)NC(=O)[C@H](CC(N)=O)NC(=O)c1ccc2ccccc2n1` [compound 44], on HIV-1 protease, the Ki stood at 11 nM, the kinact is 0.0417 s⁻¹ and the kinact/KI was 3.83e+06 M⁻¹ s⁻¹. Moreover, in series [1], the CC50 was over 100000 nM. In the series with HIV-1, the IC50 worked out at 300 nM.
For the compound `CC(C)[C@H](CCCc1ccccc1)NC(=O)C[C@@H]1O[C@@H]1[C@H](Cc1ccccc1)NC(=O)[C@H](CC(N)=O)NC(=O)c1ccc2ccccc2n1` [compound 45], at HIV-1 protease, the Ki is 1.2 nM, the kinact is 0.04 s⁻¹ and the kinact/KI was 3.33e+07 M⁻¹ s⁻¹. Further, the CC50 in series [1] is over 100000 nM. In addition, the midpoint of inhibition in the series on HIV-1, the IC50, lay at 200 nM.

Broadly, the Ki is the equilibrium dissociation constant of an inhibitor or competing ligand from its target. Low values mean tighter binding, high ones weaker binding. As usually defined, the IC50 is the concentration that inhibits the measured activity by half. Low values mean inhibition by little substance, high ones a need for much substance.

For the origin of these results see US5744621A, “Irreversible HIV protease inhibitors, intermediates, compositions and processes for the preparation thereof” (Lucky Limited., priority 1992, dated 1998).
